Read-outs that look alike come from different tables or passages of the source.
Experiments:
[1] = test system: patients with a history of myocardial infarction; conditions: for proportion of patients who prematurely discontinued treatment: over the duration of the trial
Excerpt: Any erroneously treated patients (e.g., randomized to ticagrelor but actually given placebo) were to be accounted for in the actual treatment group.
The primary efficacy endpoint was the composite of cardiovascular death, myocardial infarction, or stroke. Secondary endpoints were cardiovascular death and all-cause mortality. The analysis of secondary endpoints proceeded in a hierarchical fashion, starting with cardiovascular death and then death from any cause. Additional endpoints listed below were evaluated on an exploratory basis. Exploratory efficacy endpoints included substituting coronary heart disease death for cardiovascular death, and the additional end points of urgent coronary revascularization, unstable angina, and transient ischemic attack. The primary safety endpoint was TIMI major bleeding. Other safety endpoints included intracranial hemorrhage (ICH) and fatal bleeding. […] A central clinical events committee whose members were unaware of the treatment assignments adjudicated all efficacy endpoints and bleeding episodes.
Safety analyses included all randomized patients who received at least one dose of study drug and for whom post-dose data were available. Patients were censored at the first of the pre-specified Common Study End Date, withdrawal of consent, or the last clinical event assessment. Safety was analyzed as on-treatment including all events occurring after first dose and within 7 days after the last dose of study drug. […] Event rates are expressed as Kaplan-Meier estimates of cumulative incidence.

platelets [2] = conditions: either ticagrelor group
thromboxane B2 = conditions: either ticagrelor group
platelets [3] = conditions: for most patients; cited from earlier work
[4] = 60 mg bid, intention-to-treat population
[5] = 90 mg bid (N = 6988), listed as ticagrelor
[6] = 90 mg bid, intention-to-treat population

## CCCSc1nc(N[C@@H]2C[C@H]2c2ccc(F)c(F)c2)c2nnn([C@@H]3C[C@H](OCCO)[C@@H](O)[C@H]3O)c2n1 [Ticagrelor, (1S,2S,3R,5S)-3-[7-{[(1R,2S)-2-(3,4-difluorophenyl)cyclopropyl]amino}-5-(propylthio)-3H-[1,2,3]-triazolo[4,5-d]pyrimidin-3-yl]-5-(2-hydroxyethoxy)cyclopentane-1,2-diol]
[1]; [4]
  Non-Cardiovascular death: (%): (1.6) %
  Non-Cardiovascular death: n: 113
[1]; 60 mg
  proportion of patients who prematurely discontinued treatment: 28.7%
[1]; 90 mg bid
  Dyspnea, 3-year event rate: 18.9%
  Fatal bleeding: ARI (%): −0.15%
  Hypotension: 0.66 events/100 pt years
  ICH: ARI (%): 0.09%
  ICH: NNH: 1111
  TIMI major bleeding: ARI (%): 1.54%
  TIMI major bleeding: NNH: 65
  frequency of death (including bleeding): 4.8%
  frequency of death, bleeding events excluded: 4.4%
  median duration of resolved dyspnea adverse events: 22 days
[1]; 90 mg bid (N = 6988)
  Adverse event leading to death: (%): (2.3) %
  Adverse event leading to death: n: 161
  Adverse event leading to discontinuation of study drug: (%): (18.7) %
  Adverse event leading to discontinuation of study drug: n: 1306
  Any adverse event: (%): (76.2) %
  Any adverse event: n: 5327
  Any serious adverse event: (%): (21.7) %
  Any serious adverse event: n: 1514
  Bleeding leading to study drug discontinuation: 3-year Kaplan-Meier estimate: (7.80) %
  Bleeding leading to study drug discontinuation: n: 454
  Bleeding requiring transfusion: 3-year Kaplan-Meier estimate: (2.40) %
  Bleeding requiring transfusion: n: 122
  Bradyarrhythmia adverse event: (%): (1.5) %
  Bradyarrhythmia adverse event: n: 105
  Dyspnea AE: (%): (17.22) %
  Dyspnea AE: n: 1204
  Dyspnea SAE: (%): (0.3) %
  Dyspnea SAE: n: 22
  Dyspnea leading to study drug discontinuation: (%): (6.2) %
  Dyspnea leading to study drug discontinuation: n: 430
  Fatal Bleeding: 3-year Kaplan-Meier estimate: (0.11) %
  Fatal Bleeding: n: 6
  Fatal bleeding or non-fatal intracranial hemorrhage: 3-year Kaplan-Meier estimate: (0.71) %
  Fatal bleeding or non-fatal intracranial hemorrhage: n: 33
  Gout adverse event: (%): (1.4) %
  Gout adverse event: n: 99
  Intracranial Hemorrhage: 3-year Kaplan-Meier estimate: (0.56) %
  Intracranial Hemorrhage: n: 29
  Renal adverse event: (%): (2.4) %
  Renal adverse event: n: 166
  Serious adverse event leading to discontinuation of study drug: (%): (3.7) %
  Serious adverse event leading to discontinuation of study drug: n: 256
  TIMI Major bleeding: 3-year Kaplan-Meier estimate: (2.60) %
  TIMI Major bleeding: n: 127
  TIMI Minor bleeding: 3-year Kaplan-Meier estimate: (1.31) %
  TIMI Minor bleeding: n: 66
[1]; [5]
  Bleeding leading to study drug discontinuation: 3-year Kaplan-Meier estimate: 7.8%
  Bleeding requiring transfusion: 3-year Kaplan-Meier estimate: 2.4%
  Dyspnea leading to study drug discontinuation: (%): 6.5%
  Fatal Bleeding: 3-year Kaplan-Meier estimate: 0.1%
  Intracranial Hemorrhage: 3-year Kaplan-Meier estimate: 0.6%
  TIMI Major bleeding: 3-year Kaplan-Meier estimate: 2.60%
[1]; 90 mg bid vs Placebo
  Bleeding leading to study drug discontinuation: HR: 5.67
  Bleeding requiring transfusion: HR: 3.75
  Dyspnea AE: HR: 3.55
  Dyspnea SAE: HR: 3.02
  Dyspnea leading to study drug discontinuation: HR: 8.89
  Fatal Bleeding: HR: 0.58
  Fatal bleeding or non-fatal intracranial hemorrhage: HR: 1.20
  Intracranial Hemorrhage: HR: 1.44
  TIMI Major bleeding: HR: 2.69
  TIMI Minor bleeding: HR: 4.15
[1]; 90 mg bid, intention-to-treat data
  TIMI major bleeding events per year if 10,000 patients were started on treatment versus placebo: 41
[1]; [6]
  Death: (%): (4.6) %
  Death: n: 326
  Non-Cardiovascular death: (%): (2.0) %
  Non-Cardiovascular death: n: 142
[1]; 90 mg
  proportion of patients who prematurely discontinued treatment: 32.0%
[1]; PEGASUS, 60 mg bid
  serum uric acid level increase from baseline: approximately 0.2 mg/dL
[1]; PEGASUS, experimental arm
  Gout, patients: 1.5%
[1]; either dose of ticagrelor
  dyspneic episodes characterized as mild: 57%
  dyspneic episodes characterized as moderate: 38%
[1]; patients on ticagrelor
  dyspnea as a serious adverse event, 3-year rate: 0.3%
Platelets [2]
  VerifyNow Aspirin assay results vs placebo group: no differences
Thromboxane B2
  serum thromboxane B2 levels vs placebo group: no differences
Platelets [3]
  onset of antiplatelet effect: ≤ 2 h

— patent US10300065B2, “Method of treating or prevention of atherothrombotic events in patients with history of myocardial infarction” (ASTRAZENECA AB, priority 2015, dated 2019)
